# Source: patent publication US11524960B2, “Heterobicyclic inhibitors of MAT2A and methods of use for treating cancer” (AGIOS PHARMACEUTICALS, INC., priority 2018, dated 2022)
# Columns and labels:
# [1] = target: T1, MAT2A homodimer (Homo sapiens, UniProt P31153); assay: Biochemical assay: inhibition of MAT2A (phosphate release, PiColorLock Gold); settings: MAT2A IC50 score; read-out: Enzyme Inhibition (Example 275)
# T1 construct: inferred from Ni sepharose purification and imidazole elution; made in house; host or cells: Sf9 insect cells, recombinant baculovirus (Bac to Bac, pFASTBAC1)
# T1 sequence (P31153 whole entry): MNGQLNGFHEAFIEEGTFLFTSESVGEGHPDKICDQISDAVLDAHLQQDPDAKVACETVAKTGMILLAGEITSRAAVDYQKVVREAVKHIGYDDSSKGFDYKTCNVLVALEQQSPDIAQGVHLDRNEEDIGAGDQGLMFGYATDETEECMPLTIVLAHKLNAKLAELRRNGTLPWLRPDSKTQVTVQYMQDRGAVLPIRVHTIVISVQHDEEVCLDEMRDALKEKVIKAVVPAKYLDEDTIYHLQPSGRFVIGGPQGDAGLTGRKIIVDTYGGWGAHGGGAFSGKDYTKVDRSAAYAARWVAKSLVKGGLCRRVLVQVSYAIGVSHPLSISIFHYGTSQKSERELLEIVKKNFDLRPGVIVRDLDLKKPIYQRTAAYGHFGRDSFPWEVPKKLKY
# Outline: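 Baculovirus/Sf9-expressed, Ni-purified MAT2A at 4 µg/mL was preincubated with compound for 60 min at 25 °C in 50 mM Tris pH 8.0, 50 mM KCl, 15 mM MgCl2, 0.3 mM EDTA, 0.005% BSA. Substrate mix (500 μM ATP, 400 μM L-methionine) was added and the reaction ran 60 min at 25 °C. Phosphate released stoichiometrically with SAM was measured colorimetrically against a phosphate standard curve.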
# [2] = tested on: SAM in HCT116 human colon carcinoma cell line engineered to delete the MTAP gene (MTAP −/−); assay: Cellular assay of target engagement (SAM) by LC-MS/MS; type: cell-based; settings: Homo sapiens, HCT-116, 72 h, IC50 score, read-out: Cell 72 h SAM Inhibition (MTAP −/−; Example 276)
# Outline: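 MTAP-deleted HCT116 cells were dosed 24 h after plating with a 10-point 3-fold compound series in DMSO, then incubated 72 h at 37 °C/5% CO2. Cells were extracted in cold 80% methanol with acetic acid and d3-SAM internal standard. SAM was quantified by LC-MS/MS MRM (m/z 399.2→250.1).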
# [3] = tested on: HCT116 MTAP−/−; assay: Inhibition of cellular proliferation (Cell Titer Glo), HCT116 MTAP−/−; type: cell-based, human; settings: Homo sapiens, HCT-116, 96 h, 4 days, IC50 score, read-out: 4 Day Relative Growth Inhibition (MTAP −/−; Example 277)
# Outline: (§1)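 Isogenic HCT116 lines, MTAP+/+ and MTAP−/−, treated 24 h after plating with 10-point 3-fold compound dilutions including DMSO only, then grown 4 days at 37 °C/5% CO2. Cell Titer Glo ATP luminescence, blank-subtracted and normalised to 0.2% DMSO control, gave percent change in proliferation versus log concentration.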
# [4] = tested on: HCT116 MTAP+/+; assay: Inhibition of cellular proliferation (Cell Titer Glo), HCT116 MTAP+/+; type: cell-based, human; settings: Homo sapiens, HCT-116, 96 h, 4 days, IC50 score, read-out: 4 Day Relative Growth Inhibition (MTAP +/+; Example 277)
# Outline: as §1
SMILES,IC50 [1],IC50 [2],IC50 [3],IC50 [4]
"CCSc1ccc2cn(-c3ccc4nn(C)cc4c3)c(=O)c(-c3ccc(Cl)cc3)c2n1 [Example 259, 8-(4-chlorophenyl)-2-(ethylthio)-6-(2-methyl-2H-indazol-5-yl)-1,6-naphthyridin-7(6H)-one]",< 100 nM,< 100 nM,< 100 nM,> 10000 nM
Cn1cc2cc(-n3cc4cnc(NCC(F)F)nc4c(-c4ccc(Cl)cc4)c3=O)ccc2n1 [Example 102-A],< 100 nM,< 100 nM,< 100 nM,100 to 10000 nM
"O=c1c(-c2ccc(-c3nc[nH]n3)cc2)c2nc(OCC(F)(F)F)ncc2cn1-c1ccc2ncccc2c1 [Example 268, 8-(4-(H-1,2,4-triazol-3-yl)phenyl)-6-(quinolin-6-yl)-2-(2,2,2-trifluoroethoxy)pyrido[4,3-d]pyrimidin-7(6H)-one]",< 100 nM,100 to 1000 nM,100 to 10000 nM,> 10000 nM
"CCOc1ccc2cn(-c3ccc4nn(C)cc4c3)c(=O)c(-c3ccc(Cl)cc3)c2n1 [Example 247, 8-(4-chlorophenyl)-2-ethoxy-6-(2-methyl-2H-indazol-5-yl)-1,6-naphthyridin-7(6H)-one]",< 100 nM,< 100 nM,< 100 nM,100 to 10000 nM
"Cn1cc2cc(-n3cc4ccc(NCC(F)(F)F)nc4c(-c4ccc(C5CC5)nc4)c3=O)ccc2n1 [Example 212, 8-(6-cyclopropylpyridin-3-yl)-6-(2-methyl-2H-indazol-5-yl)-2-((2,2,2-trifluoroethyl)amino)-1,6-naphthyridin-7(6H)-one]",< 100 nM,< 100 nM,< 100 nM,> 10000 nM
"CCOc1ncc2cn(-c3ccc4nn(C)cc4c3)c(=O)c(-c3ccc(Cl)cc3)c2n1 [Example 270, 8-(4-chlorophenyl)-2-ethoxy-6-(2-methyl-2H-indazol-5-yl)pyrido[4,3-d]pyrimidin-7(6H)-one]",< 100 nM,< 100 nM,< 100 nM,> 10000 nM
"CCOc1ccc2cn(-c3ccc4nn(C)cc4c3)c(=O)c(-c3ccc(C(F)(F)F)cc3)c2n1 [Example 215, 2-ethoxy-6-(2-methyl-2H-indazol-5-yl)-8-(4-(trifluoromethyl)phenyl)-1,6-naphthyridin-7(6H)-one]",< 100 nM,< 100 nM,< 100 nM,100 to 10000 nM
"Cn1cc2cc(-n3cc4ccc(NCC(F)(F)F)nc4c(-c4ccc(OC(F)(F)F)cc4)c3=O)ccc2n1 [Example 211, 6-(2-methyl-2H-indazol-5-yl)-2-((2,2,2-trifluoroethyl)amino)-8-(4-(trifluoromethoxy)phenyl)-1,6-naphthyridin-7(6H)-one]",< 100 nM,< 100 nM,< 100 nM,> 10000 nM
CCOc1ccc2cn(-c3ccc4nn(C)c(C)c4c3)c(=O)c(-c3ccc(Cl)cc3)c2n1 [Example 105-A],< 100 nM,< 100 nM,< 100 nM,100 to 10000 nM
"O=c1c(-c2ccc(OC(F)F)cc2)c2nc(OCC(F)(F)F)ncc2cn1-c1ccc2ncccc2c1 [Example 264, 8-(4-(difluoromethoxy)phenyl)-6-(quinolin-6-yl)-2-(2,2,2-trifluoroethoxy)pyrido[4,3-d]pyrimidin-7(6H)-one]",< 100 nM,< 100 nM,100 to 10000 nM,100 to 10000 nM
"CCOc1ccc2cn(-c3ccc4ncn(C)c4c3)c(=O)c(-c3ccc(C(F)(F)F)cc3)c2n1 [Example 227, 2-ethoxy-6-(1-methyl-1H-benzo[d]imidazol-6-yl)-8-(4-(trifluoromethyl)phenyl)-1,6-naphthyridin-7(6H)-one]",< 100 nM,< 100 nM,< 100 nM,100 to 10000 nM
"O=c1c(-c2ccc(OC(F)F)cc2)c2nc(NCC(F)(F)F)ncc2cn1-c1ccc2ncccc2c1 [Example 159, 8-(4-(difluoromethoxy)phenyl)-6-(quinolin-6-yl)-2-((2,2,2-trifluoroethyl)amino)pyrido[4,3-d]pyrimidin-7(6H)-one]",< 100 nM,< 100 nM,< 100 nM,100 to 10000 nM
CCOc1ccc2cn(-c3ccc(OC)cc3)c(=O)c(-c3ccc(OC(F)F)nc3)c2n1 [Example 129-A],< 100 nM,< 100 nM,100 to 10000 nM,100 to 10000 nM
"CCNc1ncc2cn(-c3ccc4nn(C)cc4c3)c(=O)c(-c3ccc(Cl)cc3)c2n1 [Example 169, 8-(4-chlorophenyl)-2-(ethylamino)-6-(2-methyl-2H-indazol-5-yl)pyrido[4,3-d]pyrimidin-7(6H)-one]",< 100 nM,< 100 nM,< 100 nM,> 10000 nM

# The remaining lines, values ahead:
IC50 [1],IC50 [2],IC50 [3],IC50 [4],SMILES
< 100 nM,< 100 nM,< 100 nM,100 to 10000 nM,"CCOc1ccc2cn(-c3ccc4nn(C)cc4c3)c(=O)c(-c3ccc(CF)nc3)c2n1 [Example 137-A, 2-ethoxy-8-(6-(fluoromethyl)pyridin-3-yl)-6-(2-methyl-2H-indazol-5-yl)-1,6-naphthyridin-7(6H)-one]"
< 100 nM,< 100 nM,< 100 nM,100 to 10000 nM,"Cn1cc2cc(-n3cc4ncc(OCC(F)F)nc4c(-c4ccc(OC(F)F)cc4)c3=O)ccc2n1 [Example 139-A, 2-(2,2-difluoroethoxy)-8-(4-(difluoromethoxy)phenyl)-6-(2-methyl-2H-indazol-5-yl)pyrido[3,4-b]pyrazin-7(6H)-one]"
< 100 nM,< 100 nM,< 100 nM,> 10000 nM,"CCn1cnc2ccc(-n3cc4cnc(NCC(F)(F)F)nc4c(-c4ccc(Cl)cc4)c3=O)cc21 [Example 141, 8-(4-chlorophenyl)-6-(1-ethyl-1H-benzo[d]imidazol-6-yl)-2-((2,2,2-trifluoroethyl)amino)pyrido[4,3-d]pyrimidin-7(6H)-one]"
< 100 nM,< 100 nM,< 100 nM,100 to 10000 nM,"Cn1cc2cc(-n3cc4cnc(NCC(F)(F)F)nc4c(-c4ccc(Cl)cc4)c3=O)ccc2n1 [Example 123, 8-(4-chlorophenyl)-6-(2-methyl-2H-indazol-5-yl)-2-((2,2,2-trifluoroethyl)amino)pyrido[4,3-d]pyrimidin-7(6H)-one]"
< 100 nM,< 100 nM,< 100 nM,> 10000 nM,"COc1ccc(-n2cc3cnc(NCC(F)(F)F)nc3c(-c3ccc(OC(F)F)cc3)c2=O)cc1 [Example 195, 8-(4-(difluoromethoxy)phenyl)-6-(4-methoxyphenyl)-2-((2,2,2-trifluoroethyl)amino)pyrido[4,3-d]pyrimidin-7(6H)-one]"
< 100 nM,< 100 nM,< 100 nM,> 10000 nM,CCOc1cnc2cn(-c3ccc4nn(C)cc4c3)c(=O)c(-c3ccc(Cl)cc3)c2n1 [Example 147-A]
< 100 nM,< 100 nM,100 to 10000 nM,> 10000 nM,"CCOc1ncc2cn(-c3ccc4ncn(C)c4c3)c(=O)c(-c3ccc(Cl)cc3)c2n1 [Example 269, 8-(4-chlorophenyl)-2-ethoxy-6-(1-methyl-1H-benzo[d]imidazol-6-yl)pyrido[4,3-d]pyrimidin-7(6H)-one]"
< 100 nM,< 100 nM,100 to 10000 nM,> 10000 nM,"O=c1c(-c2ccc(Cl)cc2)c2nc(NCC(F)(F)F)ncc2cn1-c1ccc2ncccc2c1 [Example 139, 8-(4-chlorophenyl)-6-(quinolin-6-yl)-2-((2,2,2-trifluoroethyl)amino)pyrido[4,3-d]pyrimidin-7(6)-one]"
< 100 nM,< 100 nM,< 100 nM,> 10000 nM,"Cn1cc2cc(-n3cc4ccc(NC5CC5)nc4c(-c4ccc(OC(F)F)cc4)c3=O)ccc2n1 [Example 242, 2-(cyclopropylamino)-8-(4-(difluoromethoxy)phenyl)-6-(2-methyl-2H-indazol-5-yl)-1,6-naphthyridin-7(6H)-one]"
< 100 nM,< 100 nM,< 100 nM,> 10000 nM,"Cn1cnc2ccc(-n3cc4ccc(OCC(F)(F)F)nc4c(-c4ccc(Cl)cc4)c3=O)cc21 [Example 255, 8-(4-chlorophenyl)-6-(1-methyl-1H-benzo[d]imidazol-6-yl)-2-(2,2,2-trifluoroethoxy)-1,6-naphthyridin-7(6H)-one]"
< 100 nM,< 100 nM,100 to 10000 nM,> 10000 nM,CCOc1ccc2cn(-c3ccc4nn(C)nc4c3)c(=O)c(-c3ccc(Cl)cc3)c2n1 [Example 106-A]
< 100 nM,< 100 nM,< 100 nM,> 10000 nM,"CCOc1ccc2cn(-c3ccc4ncccc4c3)c(=O)c(-c3ccc(Cl)cc3)c2n1 [Example 243, 8-(4-chlorophenyl)-2-ethoxy-6-(quinolin-6-yl)-1,6-naphthyridin-7(6H)-one]"
